Like-named read-outs stand apart in the source and are kept apart here.
Columns and labels:
[1] = test system: Human fibrosarcoma HT-1080 tumor tissue homogenate; assay type: biochemical; settings: Human fibrosarcoma HT-1080; 37° C., 1 mg/ml, 100 μg acidized homogenate
Method in brief: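 Protease activation of compounds was measured in acidized tissue homogenates at 37° C, using 1 mg/ml compound per 100 μg homogenate.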

[2] = test system: BALB/C mice; test: Maximum tolerated dose (MTD) / acute toxicity by single intravenous injection; settings: for Behaviors and death observed: BALB/C mice receiving 90 mg/kg injection; for MTD (maximum tolerated dose): intravenous injection, one time
[3] = test system: 4T1 cells; test: BALB/C mice model for tumor metastasis (4T1, lung metastases); assay type: in vivo; settings: for Inhibitory effect on tumor metastasis, in words: compared with parent drug group and control group
Procedure: 1) 4T1 cells were purchased from American type culture collection (ATCC) and identified according the specification provided by ATCC. Cells were cultivated in DMEM culture solution containing 10% fetal bovine serum at 37° C. and 5% CO2. The cells were passaged for every three days and cells within the 15th passage were used.
2) Production of tumor metastasis. 10^6 […] were subcutaneously injected to the back of the BALB/C mice. Mice were randomly grouped after the tumor grew to about 1.5 cm. The subcutaneous tumor was removed by surgery and drug treatment began. Mice were killed after anesthesia on day 27. The whole lung was taken out and put into Bouin's solution for staining. The number of the tumor metastasized to lung was counted with anatomical microscope.
(§1) The control group was administered by physiological saline. Drugs were administered once for every three days for 4 times.
as §1
According to the clinical application of B1, B2, B3 and B4, drugs were intravenously injected (IV). […] The control group was administered by physiological saline. Drugs were administered once for every three days for 4 times.
According to the clinical application of D1, D2, D3 and D4, drugs were intravenously injected (IV). […] The control group was administered by physiological saline. Drugs were administered once for every three days for 4 times.

[4] = Solubility / formulation test in solvent 1 and solvent 2; assay type: physicochemical; settings: for Concentration achieved, completely dissolved in both solvent 1 and solvent 2: solvent 1 injectable water
Procedure: In Table 11, AAN, AANL and AANK indicate the linkage formed by small peptides in the compounds, A is Ala, N is Asn, L is Leu and K is Lys. […] The dissolution concentration is 10 mg/ml.
B1, B2, B3 and B4 and various control compounds were dried under vacuum, sterilized via gas sterilization, and separately packing in a sterile room. Before animal test, B1, B2, B3 and B4 were dissolved by solvent 1 (injectable water) or solvent 2 (30% alcohol, 70% injectable water) and diluted by injectable water to the desired concentration in sterile room. […] Change in solubility may greatly affect the formulation scheme of a drug.
D1, D2, D3, D4 and various control compounds were dried under vacuum, sterilized via gas sterilization, and separately packing in a sterile room. […] Change in solubility may greatly affect the formulation scheme of a drug.

[5] = test system: Human heart; assay type: biochemical; settings: Human heart, 1 mg/ml
[6] = test system: Human prostate cancer PC-3 cells / Panc-1 cells; test: Tumor treatment in nude mice (PC-3 cells purchased, Panc-1 cells injected; Examples 22, 32, 42); assay type: in vivo; settings: for Size of tumor (mm^3) Day 10 / inhibitory rate on tumor Day 10 / Size of tumor (mm^3) Day 24 / inhibitory rate on tumor Day 24: nude mice, IV once weekly for four weeks, Paclitaxel 8 mg/kg; for Inhibition on tumor growth, in words: compared with parent drug group (same molar concentration) and control group
Procedure: 1) Human prostate cancer PC-3 cells were purchased from American type culture collection (ATCC) and identified according the specification provided by ATCC. Cells were cultivated in DMEM culture solution containing 10% fetal bovine serum at 37° C. and 5% CO2. The cells were passaged for every three days and cells within the 15th passage were used.
2) Production of tumor. 5×10^6Panc-1 cells were subcutaneously injected to the back of the nude mice. Mice were randomly grouped after the tumor reached at least 100 mm^3. Then treatment began and the day on which the treatment began was day 1.
The control group was administered by physiological saline. Drugs were administered once weekly for four weeks.
According to the clinical application of B1, B2, B3 and B4, drugs were intravenously injected (IV). […] The control group was administered by physiological saline. Drugs were administered once weekly for four weeks.

[7] = day 27, IV once every three days for 4 times, E1-E4 15 mg/kg, mitomycin 1 mg/kg
[8] = lung metastases counted on day 27, IV once every three days for 4 times, E1-E4 15 mg/kg, mitomycin 1 mg/kg
[9] = single intravenous injection, 125 mg/kg, 10 BALB/C mice per group
[10] = single intravenous injection, 150 mg/kg, 10 BALB/C mice per group
[11] = single intravenous injection, 175 mg/kg, 10 BALB/C mice per group
[12] = single intravenous injection, 200 mg/kg, 10 BALB/C mice per group
[13] = Table 28, BALB/C mice, 4T1, lung metastases day 27, IV every three days for 4 times, A1-A4 12 mg/kg, Paclitaxel 4 mg/kg
[14] = 4T1, BALB/C mice, lung, day 27, IV every three days for 4 times, S1′-S4′ 12 mg/kg, Paclitaxel 4 mg/kg

SMILES: COCCOCCOCCOCCOCCOCC(=O)N[C@H](C)C(=O)N[C@H](C)C(=O)N[C@H](CC(N)=O)C(=O)Nc1ccc(COC(=O)N2[C@H]3[C@@H]2CN2C4=C(C(=O)C(N)=C(C)C4=O)[C@H](COC(N)=O)[C@]32OC)cc1 [Compound E2]
- Activation ratio (%) in homogenates from different tumor tissues [1]: 85.7%
- Mortality rate (%) ([2]; 50 mg/kg single IV injection, 10 BALB/C mice): 0%
- Number of dead animal ([2]; 50 mg/kg single IV injection, 10 BALB/C mice, observed 17 days): 0
- Mortality rate (%) ([2]; 70 mg/kg single IV injection, 10 BALB/C mice): 0%
- Number of dead animal ([2]; 70 mg/kg single IV injection, 10 BALB/C mice, observed 17 days): 0
- Mortality rate (%) ([2]; 90 mg/kg single IV injection, 10 BALB/C mice): 0%
- Number of dead animal ([2]; 90 mg/kg single IV injection, 10 BALB/C mice, observed 17 days): 0
- Mortality rate (%) ([2]; 110 mg/kg single IV injection, 10 BALB/C mice): 10%
- Number of dead animal ([2]; 110 mg/kg single IV injection, 10 BALB/C mice, observed 17 days): 1
- Behaviors and death observed [2]: no pilo-erection, hair tousle and lackluster, lethargy, stoop, irritable reaction and death
- Inhibitory effect on tumor metastasis, in words [3]: greatly improved
- Inhibitory rate on metastasis [3, 7]: 94.1%
- Number of metastasized tumor [3, 8]: 8 ± 7

SMILES: CO[C@@]12[C@H](COC(N)=O)C3=C(C(=O)C(C)=C(N)C3=O)N1C[C@@H]1N[C@@H]12 [mitomycin, reference compound]
- Mortality rate (%) ([2]; 6 mg/kg single IV injection, 10 BALB/C mice): 0%
- Number of dead animal ([2]; 6 mg/kg single IV injection, 10 BALB/C mice, observed 17 days): 0
- Mortality rate (%) ([2]; 7 mg/kg single IV injection, 10 BALB/C mice): 10%
- Number of dead animal ([2]; 7 mg/kg single IV injection, 10 BALB/C mice, observed 17 days): 1
- Mortality rate (%) ([2]; 8 mg/kg single IV injection, 10 BALB/C mice): 40%
- Number of dead animal ([2]; 8 mg/kg single IV injection, 10 BALB/C mice, observed 17 days): 4
- Mortality rate (%) ([2]; 9 mg/kg single IV injection, 10 BALB/C mice): 90%
- Number of dead animal ([2]; 9 mg/kg single IV injection, 10 BALB/C mice, observed 17 days): 9
- Inhibitory rate on metastasis [3, 7]: 5.9%
- Number of metastasized tumor [3, 8]: 128 ± 25

SMILES: COCCOCCOCCOCCOCCOCC(=O)NCCCC[C@H](NC(=O)COCCOCCOCCOCCOCCOC)C(=O)N[C@H](C)C(=O)N[C@H](C)C(=O)N[C@H](CC(N)=O)C(=O)Nc1ccc(COC(=O)OC(C(=O)OC2C[C@@]3(O)[C@@H](OC(=O)c4ccccc4)[C@H]4[C@](C)(C(=O)[C@H](OC(C)=O)C(=C2C)C3(C)C)[C@@H](O)CC2OC[C@]24OC(C)=O)[C@@H](NC(=O)c2ccccc2)c2ccccc2)cc1 (some centres unmarked) [Compound A2]
- solubility in Solvent 1 ([4]; solvent 1 (injectable water), Table 22, Paclitaxel series): soluble
- Concentration achieved, completely dissolved in both solvent 1 and solvent 2 ([4]; solvent 2 45% alcohol, 55% injectable water): 10 mg/mL
- solubility in Solvent 2 ([4]; solvent 2 (45% alcohol, 55% injectable water), Table 22, Paclitaxel series): soluble
- Solubility in water, in words ([4]; water): can directly dissolve in water
- Activation ratio (%) in homogenates from different tumor tissues ([5]; acidized homogenate pH6.0, Paclitaxel release by HPLC): none
- Size of tumor (mm^3) Day 10 ([6]; Table 26, A1-A4 24 mg/kg): 55.19 ± 56.2 mm^3
- inhibitory rate on tumor Day 10 ([6]; Table 26, A1-A4 24 mg/kg): 81.3%
- Size of tumor (mm^3) Day 24 ([6]; Table 26, A1-A4 24 mg/kg): 44.43 ± 47.9 mm^3
- inhibitory rate on tumor Day 24 ([6]; Table 26, A1-A4 24 mg/kg): 88.3%
- Inhibition on tumor growth, in words [6]: greatly improved
- Behaviors and death observed [2]: no pilo-erection, hair tousle and lackluster, lethargy, stoop, irritable reaction and death
- MTD (maximum tolerated dose) ([2]; BALB/C mice): about 90 mg/kg
- Mortality rate (%) [2, 9]: 10%
- Number of dead animal [2, 9]: 2
- Mortality rate (%) [2, 10]: 0%
- Number of dead animal [2, 10]: 0
- Mortality rate (%) [2, 11]: 0%
- Number of dead animal [2, 11]: 0
- Mortality rate (%) [2, 12]: 0%
- Number of dead animal [2, 12]: 0
- Inhibitory rate on metastasis [3, 13]: 93.9%
- Number of metastasized tumor [3, 13]: 9 ± 5
- Inhibitory effect on tumor metastasis, in words [3]: greatly improved

SMILES: COCCOCCOCCOCCOCCOCC(=O)N[C@H](C)C(=O)N[C@H](C)C(=O)N[C@H](CC(N)=O)C(=O)Nc1ccc(COC(=O)OC(C(=O)OC2C[C@@]3(O)[C@@H](OC(=O)c4ccccc4)[C@H]4[C@](C)(C(=O)[C@H](OC(C)=O)C(=C2C)C3(C)C)[C@@H](O)CC2OC[C@]24OC(C)=O)[C@@H](NC(=O)c2ccccc2)c2ccccc2)cc1 (some centres unmarked) [S2′]
- solubility in Solvent 1 ([4]; Solvent 1 injectable water, dissolution concentration 10 mg/ml): soluble
- solubility in Solvent 2 ([4]; Solvent 2: 50% injectable water, 45%-49% propanediol, 1%-5% Tween80, dissolution concentration 10 mg/ml): soluble
- Concentration achieved, completely dissolved in both solvent 1 and solvent 2 ([4]; solvent 2 50% injectable water, 42%-49% propanediol, 1%-8% Tween80): 10 mg/mL
- Activation ratio (%) in homogenates from different tumor tissues ([5]; 37°): none
- Inhibition on tumor growth, in words [6]: greatly improved
- Size of tumor (mm^3) Day 10 ([6]; S1′-S4′ 24 mg/kg): 60.17 ± 30.26 mm^3
- inhibitory rate on tumor Day 10 ([6]; S1′-S4′ 24 mg/kg): 36.4%
- Size of tumor (mm^3) Day 24 ([6]; S1′-S4′ 24 mg/kg): 42.39 ± 62.24 mm^3
- inhibitory rate on tumor Day 24 ([6]; S1′-S4′ 24 mg/kg): 83.01%
- Behaviors and death observed [2]: no pilo-erection, hair tousle and lackluster, lethargy, stoop, irritable reaction and death
- MTD (maximum tolerated dose) ([2]; BALB/C mice): about 90 mg/kg
- Mortality rate (%) ([2]; BALB/C mice, single iv, 125 mg/kg): 0%
- Number of dead animal ([2]; BALB/C mice, single iv, 125 mg/kg, 10 animals): 0
- Mortality rate (%) ([2]; BALB/C mice, single iv, 150 mg/kg): 0%
- Number of dead animal ([2]; BALB/C mice, single iv, 150 mg/kg, 10 animals): 0
- Mortality rate (%) ([2]; BALB/C mice, single iv, 175 mg/kg): 0%
- Number of dead animal ([2]; BALB/C mice, single iv, 175 mg/kg, 10 animals): 0
- Mortality rate (%) ([2]; BALB/C mice, single iv, 200 mg/kg): 10%
- Number of dead animal ([2]; BALB/C mice, single iv, 200 mg/kg, 10 animals): 1
- Inhibitory rate on metastasis [3, 14]: 94.1%
- Number of metastasized tumor [3, 14]: 8 ± 7
- Inhibitory effect on tumor metastasis, in words [3]: greatly improved

Reference: patent US10682371B2, “Small molecule conjugates specifically activated in tumor microenvironment for targeting and use thereof” (priority 2014, dated 2020)
